Biological target: T1, human TMEM16A (TMEM16Aabc variant) (Homo sapiens, UniProt Q5XXA6, DEL476-501)
T1 sequence (Q5XXA6 with tags, fused parts or gaps isoform Q5XXA6-5 DEL539-564): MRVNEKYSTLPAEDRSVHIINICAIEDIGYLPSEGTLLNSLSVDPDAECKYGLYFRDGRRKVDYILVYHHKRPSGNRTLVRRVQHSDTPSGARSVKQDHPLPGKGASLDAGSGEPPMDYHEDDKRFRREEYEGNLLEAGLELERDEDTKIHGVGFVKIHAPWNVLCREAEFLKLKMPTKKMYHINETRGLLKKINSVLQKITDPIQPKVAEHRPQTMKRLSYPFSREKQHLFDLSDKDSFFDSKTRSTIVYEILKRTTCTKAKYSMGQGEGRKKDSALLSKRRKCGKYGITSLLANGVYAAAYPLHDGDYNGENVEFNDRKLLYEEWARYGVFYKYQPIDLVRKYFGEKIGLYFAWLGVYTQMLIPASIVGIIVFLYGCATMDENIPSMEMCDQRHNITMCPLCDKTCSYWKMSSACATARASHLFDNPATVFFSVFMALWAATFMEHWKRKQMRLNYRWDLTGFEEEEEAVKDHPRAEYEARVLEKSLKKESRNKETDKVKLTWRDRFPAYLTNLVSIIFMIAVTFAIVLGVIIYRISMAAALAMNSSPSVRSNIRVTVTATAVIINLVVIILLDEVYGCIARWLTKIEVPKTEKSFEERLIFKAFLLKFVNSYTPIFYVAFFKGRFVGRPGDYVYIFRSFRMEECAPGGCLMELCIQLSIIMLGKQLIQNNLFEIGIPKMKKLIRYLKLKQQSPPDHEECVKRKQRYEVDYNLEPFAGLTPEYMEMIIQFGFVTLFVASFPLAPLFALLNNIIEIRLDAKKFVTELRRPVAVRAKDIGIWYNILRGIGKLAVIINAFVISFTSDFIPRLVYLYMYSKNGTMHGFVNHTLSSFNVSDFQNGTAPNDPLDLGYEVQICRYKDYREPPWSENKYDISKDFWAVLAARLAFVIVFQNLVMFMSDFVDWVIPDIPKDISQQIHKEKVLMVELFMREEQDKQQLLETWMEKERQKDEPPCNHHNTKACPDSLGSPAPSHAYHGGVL
Experiment: Automated whole-cell patch clamp (Qpatch) assay to detect TMEM16A activity in recombinant cells
Format: cell-based
Conditions: for activation at 3.33 µM: 3.33 μM solution of test compound, percentage increase of baseline TMEM16A current, FRT cells stably expressing human TMEM16A, intracellular calcium at EC20, +70 mV, read-out: % Potentiation @ 3.33 μM Avg; for EC50: calculated from cumulative concentration response curve, FRT-TMEM16A cells, whole-cell patch clamp (Qpatch)
Protocol: Automated Whole-Cell Patch Clamp Assay to Detect TMEM16A Activity in Recombinant Cells
Cell Culture and Preparation
Fisher rat thyroid (FRT) cells stably expressing human TMEM16A (TMEM16Aabc variant; Dr Luis Galietta, Insituto Giannina, Italy) were cultured in T-75 flasks in Hams F-12 media with Coon's modification (Sigma) supplemented with 10% (v/v) foetal bovine serum, penicillin-streptomycin (10,000 U/mL/10000 μg/mL), G-418 (750 μg/mL), L-glutamine (2 mM) and sodium bicarbonate solution (7.5% v/v). At ˜90% confluence cells were harvested for experiments by detachment with a 2:1 (v/v) mixture of Detachin (BMS Biotechnology) and 0.25% (w/v) trypsin-EDTA. Cells were diluted to a density of 3.5-4.5×10^6 cells/mL with media consisting of CHO-S-SFM II (Sigma), 25 mM HEPES (Sigma) and Soy bean trypsin inhibitor (Sigma).
Whole-Cell Patch Clamp Recording
FRT-TMEM16A cells were whole-cell patch clamped using an automated planar patch clamp system (Qpatch, Sophion). Briefly, once high resistance (GOhm) seals were established between the cells and the planar recording array the patch was ruptured using suction pulses to establish the whole-cell recording configuration of the patch clamp technique. The assay employed the following solutions (all reagents Sigma): • Intracellular solution (mM): N-methyl-D-glucamine 130, CaCl2 18.2, MgCl2 1, HEPES 10, EGTA 10, BAPTA 20, Mg-ATP 2, pH 7.25, 325mOsm with sucrose. • Extracellular solution (mM): N-methyl-D-glucamine 130, CaCl2 2, MgCl2 1, HEPES 10, pH 7.3, 320 mOsm with sucrose.
The intracellular solution buffers intracellular calcium at levels required to give ˜20% activation of the maximal TMEM16A mediated current (EC20 for calcium ions). Cells were voltage clamped at a holding potential of −70 mV and a combined voltage step (to +70 mV)/ramp (−90 my to +90 mV) was applied at 0.05 Hz. After a period of current stabilisation test compounds, solubilised in 100% (v/v) DMSO and subsequently diluted into extracellular solution, were applied to generate a cumulative concentration response curve. Each concentration of test compound was incubated for 5 minutes before addition of the next concentration. After the final concentration was tested a supramaximal concentration of either a known active positive modulator or the TMEM16A inhibitor, CaCCinhA01 (Del La Fuente et al, 2008) was added to define the upper and lower limits of the assay.
Compound activity was quantified by measuring the increase in current upon compound addition and expressing this as a percentage increase of baseline TMEM16A current level. Percentage increases in current were determined for each concentration and the data plotted as a function of concentration using either the Qpatch software or Graphpad Prism v6.05 providing the concentration which gave 50% of its maximal effect (EC50) and maximum efficacy (percentage of baseline increase).
In FIG. 1, IBL equals baseline current, I[#1] equals the peak current during test compound concentration 1 incubation period and so on.
Peak TMEM16A current at +70 mV was plotted as a function of time over the assay period. Baseline current (IBL) was measured after a period of stabilisation. The increase in current for each compound addition was determined by taking the peak current during the incubation period and subtracting the current from the previous recording period and then expressing this as a percentage of the baseline current. For test compound concentration 1 in FIG. 1 this is:
For each additional concentration tested the increase in current was determined by subtracting the current from the previous incubation period and normalising the baseline value—for test concentration 2 in FIG. 1 this is:
The values for each test concentration were plotted as a cumulative function of concentration e.g. for test concentration two this would be the sum of the peak changes measured during concentration one plus concentration two.

activation at 3.33 µM [%] | EC50 [nM] | SMILES
107 | 42 | CC(C)(C)NC(=O)c1ccc(NC(=O)Cc2cc(Cl)ccc2O)s1 [Example 1, N-tert-Butyl-5-[[2-(5-chloro-2-hydroxy-phenyl)acetyl]amino]thiophene-2-carboxamide]
127 | – | CC(C)(C)C(=O)Nc1cccc(C(=O)NCc2cc(Cl)ccc2O)c1 [Example 2, N-[(5-Chloro-2-hydroxy-phenyl)methyl]-3-(2,2-dimethylpropanoylamino)benzamide]
134 | 85 | CC(C)(C#N)NC(=O)c1ccc(NC(=O)Cc2cc(O)c(C(C)(C)C)cc2F)s1 [Example 8, 5-[[2-(4-tert-Butyl-2-fluoro-5-hydroxy-phenyl)acetyl]amino]-N-(1-cyano-1-methyl-ethyl)thiophene-2-carboxamide]
35.2 | – | CC(C)(C)NC(=O)c1cc(C(=O)NCc2ccccc2O)ccn1 [Example 4, N2-tert-Butyl-N4-[(2-hydroxyphenyl)methyl]pyridine-2,4-dicarboxamide]
134 | 98 | CC(C)(CO)c1cc(F)c(CC(=O)Nc2ccc(C(=O)NC3(C(F)(F)F)CC3)s2)cc1O [Example 9, 5-[[2-[2-Fluoro-5-hydroxy-4-(2-hydroxy-1,1-dimethyl-ethyl)phenyl]acetyl]amino]-N-[1-(trifluoromethyl)cyclopropyl]thiophene-2-carboxamide]
237 | 400 | CC(C)(C)NC(=O)c1cc(NC(=O)Cc2cc(Cl)ccc2O)cs1 [Example 1.2, N-tert-Butyl-4-[[2-(5-chloro-2-hydroxy-phenyl)acetyl]amino]thiophene-2-carboxamide]

Continued, compound first:

SMILES | activation at 3.33 µM [%] | EC50 [nM]
CC(C)(C)C(=O)Nc1ccnc(C(=O)NCc2cc(Cl)ccc2O)c1 [Example 3, N-[(5-Chloro-2-hydroxy-phenyl)methyl]-4-(2,2-dimethylpropanoylamino)pyridine-2-carboxamide] | 81.3 | –
CC(C)(C)NC(=O)c1csc(NC(=O)Cc2cc(Cl)ccc2O)c1 [Example 1.1, N-tert-Butyl-5-[[2-(5-chloro-2-hydroxy-phenyl)acetyl]amino]thiophene-3-carboxamide] | 184 | 440
CC(C)(C)C(=O)Nc1cc(NC(=O)Cc2cc(Cl)ccc2O)ccn1 [Example 7, N-[4-[[2-(5-Chloro-2-hydroxy-phenyl)acetyl]amino]-2-pyridyl]-2,2-dimethyl-propanamide] | 156 | 615
O=C(Cc1cc(Cl)ccc1O)Nc1ccnc(NC(=O)C2CCCCC2)c1 [Example 7.1, N-[4-[[2-(5-Chloro-2-hydroxy-phenyl)acetyl]amino]-2-pyridyl]cyclohexane carboxamide] | 120 | 1110
CC(C)(C)NC(=O)c1cccc(C(=O)NCc2ccccc2O)c1 [Example 5, N1-tert-Butyl-N3-[(2-hydroxyphenyl)methyl]benzene-1,3-dicarboxamide] | 41.2 | 2910
CC(C)(C)C(=O)Nc1cccc(NC(=O)Cc2cc(Cl)ccc2O)c1 [Example 6, N-[3-[[2-(5-Chloro-2-hydroxy-phenyl)acetyl]amino]phenyl]-2,2-dimethyl-propanamide] | 68.1 | 992
